Data: publication PMC7822874, “Chemoprotective antimalarials identified through quantitative high-throughput screening of Plasmodium blood and liver stage parasites” (Scientific Reports, 2021)
“And” between values parts separate entries of the source, which are not always exact repeats. Equal entries are not always repeated.

Columns and labels:
[1] = test system: T1, Plasmodium falciparum Dd2-attB (parental line), asexual blood stages; assay: microbe, parasite or virus in culture; set-up: replicate k of 3 (each line is one of three independent assays; the three lines of one compound and parasite line follow each other); conditions: n = 1; for Individual replicates / Log AC50 (M): 72 h; for AC50: Plasmodium falciparum, DD2, 72 h, read-out: Individual replicates / Log AC50 (converted)
T1 construct: Dd2-attB, the isogenic parental line
Procedure: (§1) The overexpression of the fumarate-dependent yeast DHODH confers resistance to compounds that inhibit the parasite mETC, or the parasite DHODH enzyme that depends on ubiquinone provided by the parasite mETC. Assays were performed in three independent assays on a subset of compounds, and differences between the Dd2-attB parental line and the ScDHODH transgenic line were analyzed using two-sided Student’s t-tests.

[2] = test system: T2, Plasmodium falciparum Dd2-attB-ScDHODH (transgenic line expressing yeast DHODH), asexual blood stages; assay: organism not typed; set-up: replicate k of 3 (each line is one of three independent assays; the three lines of one compound and parasite line follow each other)
T2 construct: Dd2-attB-ScDHODH, the transgenic line that expresses yeast DHODH
Procedure: as §1

[3] = 72 h; n = 1; read-out: Individual replicates / Log AC50 (converted)

Row | SMILES | Individual replicates / Log AC50 (M) [1] | AC50 [1] [µM] | Individual replicates / Log AC50 (M) ([2]; 72 h, n = 1) | AC50 [2, 3] [µM] | Individual replicates / Log AC50 (M) ([2]; 72 h; n = 1)
1 | CN(C)c1cnc2c(O)ccc(C(=O)O)c2c1 [NCGC00189499-01] | -4.7486 Log AC50 (M) | 14.2 | -4.9486 Log AC50 (M) | 14.2 | 
2 | CN(C)CCCNC(=O)c1ccc(-c2cnc3c(O)cccc3c2)cc1 [NCGC00189502-01] | -4.9986 Log AC50 (M) | 7.1 | -5.0486 Log AC50 (M) and -4.8986 Log AC50 (M) | 7.97 | 
3 | CN1CCN(C(=O)c2ccc(-c3cnc4c(O)ccc(C(=O)O)c4c3)cc2)CC1 [NCGC00189504-01] | -4.7986 Log AC50 (M) | 17.8 | -4.7486 Log AC50 (M) | 15.9 | 
4 | COC(=O)c1ccc(O)c2ncc(-c3ccc(C(=O)N4CCN(C)CC4)cc3)cc12 [NCGC00189505-01] | -5.2486 Log AC50 (M) and -5.0486 Log AC50 (M) | 5.03 | -4.8986 Log AC50 (M) and -5.1486 Log AC50 (M) | 6.33 | 
5 | COC(=O)c1ccc(O)c2ncc(N(C)C)cc12 [NCGC00189506-01] | -5.0986 Log AC50 (M) and -5.1486 Log AC50 (M) | 7.97 | -5.0486 Log AC50 (M) | 14.2 | 
6 | O=C(c1ccc(-c2cnc3c(O)cccc3c2)cc1)N1CCNCC1 [NCGC00189507-01] | -4.8986 Log AC50 (M) and -4.9986 Log AC50 (M) | 14.2 | -4.7986 Log AC50 (M) | 10 | 
7 | O=C(O)c1ccc(O)c2ncc(-c3ccc(C(=O)N4CCNCC4)cc3)cc12 [NCGC00189508-01] | -4.7486 Log AC50 (M) and -4.7986 Log AC50 (M) | 15.9 | -4.7486 Log AC50 (M) | 15.9 | 
8 | COC(=O)c1ccc(O)c2ncc(-c3ccc(C(=O)N4CCNCC4)cc3)cc12 [NCGC00189509-01] | -5.0486 Log AC50 (M) and -5.1486 Log AC50 (M) | 5.64 | -4.9486 Log AC50 (M) and -5.0986 Log AC50 (M) | 5.64 | 
9 | COC(=O)c1ccc(O)c2ncc(-c3ccc(C(=O)NCCCN(C)C)cc3)cc12 [NCGC00189510-01] | -5.1486 Log AC50 (M) and -5.1986 Log AC50 (M) | 7.97 | -4.7986 Log AC50 (M) and -5.1486 Log AC50 (M) |  | 
10 | COc1ccc(NCc2ccc(O)c3ncccc23)nc1 [NCGC00241022-01] | -4.8486 Log AC50 (M) | 20 | -4.9486 Log AC50 (M) | 11.3 | 
11 | COc1ccnc(NCc2ccc(O)c3ncccc23)c1 [NCGC00241023-01] | -4.7986 Log AC50 (M) | 15.9 |  | 12.6 | -4.8986 Log AC50 (M)
12 | Cc1cc(C)nc(NCc2ccc(O)c3ncccc23)c1 [NCGC00241026-01] | -4.7986 Log AC50 (M) | 17.8 | -4.8986 Log AC50 (M) | 20 | 
13 | Oc1ccc(CNc2cc(Cl)ccn2)c2cccnc12 [NCGC00241028-01] | -5.2986 Log AC50 (M) | 5.03 | -5.3486 Log AC50 (M) and -5.2986 Log AC50 (M) | 6.33 | 
14 | Oc1ccc(CNc2ccc3ccccc3n2)c2cccnc12 [NCGC00241029-01] | -4.8986 Log AC50 (M) and -5.0486 Log AC50 (M) | 7.1 | -4.8986 Log AC50 (M) | 7.1 | 
15 | COC(=O)c1ccnc(NCc2ccc(O)c3ncccc23)c1 [NCGC00241031-01] | -4.8986 Log AC50 (M) and -4.7486 Log AC50 (M) | 15.9 | -4.7986 Log AC50 (M) | 12.6 | 
16 | Cc1ccnc(NCc2ccc(O)c3ncccc23)c1 [NCGC00241032-01] | -4.8486 Log AC50 (M) and -4.7486 Log AC50 (M) | 17.8 | -5.0486 Log AC50 (M) | 14.2 | 
17 | O=C(O)c1ccc(O)c2ncc(N3CCOCC3)cc12 [NCGC00241036-02] |  | 14.2 |  | 10 | 
18 | COC(=O)c1ccc(O)c2ncc(NC3CCNCC3)cc12 [NCGC00241038-01] | -5.1986 Log AC50 (M) and -5.0486 Log AC50 (M) | 8.94 | -4.8986 Log AC50 (M) and -5.0986 Log AC50 (M) | 7.1 | 
19 | O=C(O)c1ccc(O)c2ncc(NC3CCNC3)cc12 (stereo not shown) [NCGC00241039-01] | -4.7486 Log AC50 (M) and -4.7986 Log AC50 (M) | 20 | -4.8486 Log AC50 (M) and -4.6486 Log AC50 (M) | 20 | 

Row | SMILES | Individual replicates / Log AC50 (M) [1] | AC50 [1] [µM] | Individual replicates / Log AC50 (M) ([2]; 72 h, n = 1) | AC50 [2, 3] [µM] | Individual replicates / Log AC50 (M) ([2]; 72 h; n = 1)
20 | COC(=O)c1ccc(O)c2ncc(NC3CCNC3)cc12 (stereo not shown) [NCGC00241040-01] | -4.7486 Log AC50 (M) and -4.8486 Log AC50 (M) | 14.2 |  | 15.9 | -4.7986 Log AC50 (M)
21 | N[C@H]1CCN(c2cnc3c(O)ccc(C(=O)O)c3c2)C1 [NCGC00241041-01] |  | 14.2 |  | 15.9 | 
22 | COC(=O)c1ccc(O)c2ncc(N3CC[C@H](N)C3)cc12 [NCGC00241042-01] | -4.9986 Log AC50 (M) and -4.8486 Log AC50 (M) | 17.8 | -4.7486 Log AC50 (M) | 17.8 | 
23 | COC(=O)c1ccc(O)c2ncc(N3CC[C@@H](N)C3)cc12 [NCGC00241044-01] | -4.8986 Log AC50 (M) and -5.0486 Log AC50 (M) | 7.1 | -5.1986 Log AC50 (M) and -5.0986 Log AC50 (M) | 11.3 | 
24 | O=C(O)c1ccc(O)c2ncc(N3CCCNCC3)cc12 [NCGC00241047-01] | -4.8986 Log AC50 (M) and -4.8486 Log AC50 (M) | 15.9 | -4.7986 Log AC50 (M) | 15.9 | 
25 | CCOC(=O)c1ccc(O)c2ncc(-c3ccc(C(=N)N)cc3)cc12 [NCGC00241050-01] |  | 17.8 |  | 20 | -4.6986 Log AC50 (M)
26 | CC1(C)OB(c2ccc(O)c3ncc(N4CCNCC4)cc23)OC1(C)C [NCGC00241053-01] | -4.8986 Log AC50 (M) and -5.0486 Log AC50 (M) | 8.94 | -5.0486 Log AC50 (M) and -4.9986 Log AC50 (M) | 7.1 | 
27 | N=C(N)c1cccc(-c2cnc3c(O)ccc(C(=O)O)c3c2)c1 [NCGC00241054-02] | -4.8986 Log AC50 (M) and -4.9486 Log AC50 (M) | 10 | -4.7486 Log AC50 (M) and -4.8486 Log AC50 (M) | 14.2 | 
28 | NC(=O)c1cccc(-c2cnc3c(O)ccc(C(=O)O)c3c2)c1 [NCGC00241055-01] |  | 15.9 |  | 14.2 | 
29 | O=C(O)c1ccc(O)c2ncc(-c3ccc(N4CCOCC4)cc3)cc12 [NCGC00241754-01] | -4.7986 Log AC50 (M) | 15.9 |  | 14.2 | 
30 | O=C(O)c1ccc(O)c2ncc(N3CCC(N4CCOCC4)C3)cc12 (stereo not shown) [NCGC00241757-01] | -4.9486 Log AC50 (M) and -4.7986 Log AC50 (M) | 10 |  | 15.9 | -4.7986 Log AC50 (M)
31 | O=C(O)c1ccc(O)c2ncc(N3CCCN(C4CCCC4)CC3)cc12 [NCGC00241765-01] | -4.7486 Log AC50 (M) | 17.8 | -4.7486 Log AC50 (M) and -4.6986 Log AC50 (M) | 20 | 
32 | CC(Cc1cnccn1)Nc1cnc2c(O)ccc(C(=O)O)c2c1 (stereo not shown) [NCGC00241766-01] | -4.8486 Log AC50 (M) | 15.9 |  | 7.97 | 
33 | CCOC(=O)c1ccc(OC(C)=O)c2ncc(N3CCOCC3)cc12 [NCGC00244523-01] | -5.3486 Log AC50 (M) and -5.3986 Log AC50 (M) | 4.48 |  | 4.48 | -5.3486 Log AC50 (M)
34 | CN(C)C(=O)c1cccc(-c2cc(O)c3ncccc3c2)c1 [NCGC00244525-01] | -5.2486 Log AC50 (M) and -5.1486 Log AC50 (M) | 7.1 | -5.1986 Log AC50 (M) and -5.0986 Log AC50 (M) | 6.33 | 
35 | CN(C)CCNC(=O)c1cccc(-c2cc(O)c3ncccc3c2)c1 [NCGC00244526-01] | -5.0986 Log AC50 (M) and -4.9486 Log AC50 (M) | 14.2 | -4.7986 Log AC50 (M) | 17.8 | 
36 | CN(C)CCCCNC(=O)c1cccc(-c2cc(O)c3ncccc3c2)c1 [NCGC00244528-01] | -4.8986 Log AC50 (M) and -4.8486 Log AC50 (M) | 17.8 | -4.7486 Log AC50 (M) | 15.9 | 
37 | O=C(c1cccc(-c2cc(O)c3ncccc3c2)c1)N1CCCCC1 [NCGC00244533-01] | -5.0486 Log AC50 (M) and -5.0986 Log AC50 (M) | 6.33 | -5.1486 Log AC50 (M) and -4.9486 Log AC50 (M) | 7.1 | 
38 | O=C(c1cccc(-c2cc(O)c3ncccc3c2)c1)N1CCOCC1 [NCGC00244534-01] | -5.0486 Log AC50 (M) and -5.0986 Log AC50 (M) | 12.6 | -5.0486 Log AC50 (M) | 14.2 | 
